Measured values reported in paper PMC10721329, “Quisinostat is a brain-penetrant radiosensitizer in glioblastoma” (JCI Insight, 2023).
Several values for one entry are separate records, joined by “and”; a condition that tells them apart may be missing. Equal entries are not always repeated.

Legend:
GB126 cells = experiment: Cell cycle analysis, propidium iodide flow cytometry; type: cell-based, human
Protocol: (§1) For cell cycle analysis following short -term DMSO or QST treatment in GSC cultures, approximately 1 million cells were harvested, washed in cold 1× PBS once, and fixed with 3–4 mL of ice cold 70% ethanol, added dropwise while vortexing. Cells were fixed on ice for 30 minutes and washed twice with 1× PBS. Cells were then resuspended in 500 μL of propidium iodide/RNAse staining buffer (BD Biosciences, 550825) for 15 minutes at room temperature before analysis. Data from all the samples were obtained using a Fortessa flow cytometer (BD Biosciences) and analyzed using the FlowJo software (TreeStar). Cell cycle analysis was performed in triplicate for all cell lines.

BT145 cells = experiment: as above; type: cell-based, human
Protocol: as §1

[1] = system: primary human astrocytes (NHA); experiment: Dose-response cell viability assay in normal astrocytes; type: cell-based; settings: for Cell viability (fraction of DMSO control): NHA, 3 days
Protocol: (§2) GSCs were seeded in laminin-coated tissue culture–treated 96-well plates (clear bottom, white plate; Corning) at a density of 1000–5000 cells per well (cell line dependent) in GSC media. U87-MG were seeded using their normal growth conditions without laminin (10% bovine calf serum in DMEM). All cells were incubated at 37°C and allowed to adhere overnight. The next day, cells were treated with incremental concentrations of QST (Selleckchem; 0, 10, 25, 50, 100, 250, 500, and 1000 nM) diluted in media. Cells treated without QST were treated with DMSO diluted in media. Following treatment with QST, cells were grown for 3 to 5 days (cell line dependent), and cell viability was measured and quantified. All cell viability measurements were performed using the CellTiter-Glo luminescent cell viability assay (Promega) following the manufacturer’s instructions. For the sulforhodamine B colorimetric assay for cytotoxicity, the protocol was performed as described elsewhere ([33]). All cell viability results represent the mean of at least 3 biological replicates, each containing 3 technical replicates.
(§3) Supplemental Figure 5. QST induces cell death in tumor tissue but not surrounding normal
(§4) brain tissue in vivo. (A) Dose-response curves with QST (10–1000 nM) in primary human
(§5) astrocytes. Cell viability 3 days after treatment with QST. […]

[2] = as above; type: cell-based, human; settings: human, primary human astrocytes (NHA), NHA, 3 days, read-out: Cell viability (fraction of DMSO control)
Protocol: as §2, §3, §4, §5

[3] = system: 7 patient-derived GSC lines and U87; experiment: Dose-titration cell viability assay, whole panel; type: cell-based; settings: Homo sapiens; 7 GSC lines and U87; 3-5 days; read-out: cellular IC50 in all lines
Protocol: QST (JNJ-26481585) is a second-generation hydroxamic acid harboring remarkable selectivity toward class I HDACs, with a biochemical IC50 of 0.1 nM for HDAC1 ([13]). […] To determine the cytotoxic effects of QST, we performed a dose-titration cell viability assay in 7 patient-derived GSC lines (BT145, GB187, GB239, GB282, GB71, GB82, and GB126) and 1 long-term serum-grown human GBM cell line (U87). Because GBMs display a high degree of intratumoral heterogeneity, we used GSCs derived from both primary and recurrent GBMs that harbored distinct genetic mutations or aberrations, growth rates, MGMT promoter methylation status, and gene expression profiles (Supplemental Figure 1; supplemental material available online with this article; https://doi.org/10.1172/jci.insight.167081DS1). Cell lines were treated with various concentrations of QST (10–1000 nM), and cell viability was measured 3–5 days later (Figure 1, A and B). […]
GSCs were seeded in laminin-coated tissue culture–treated 96-well plates (clear bottom, white plate; Corning) at a density of 1000–5000 cells per well (cell line dependent) in GSC media. […] Following treatment with QST, cells were grown for 3 to 5 days (cell line dependent), and cell viability was measured and quantified. […]

[4] = QST at IC50, 24 hours, replicates

With `Cn1cc(CNCC2CCN(c3ncc(C(=O)NO)cn3)CC2)c2ccccc21` [QST, quisinostat] the “Cell Cycle Phase, G1” value (GB126 cells; [4]) was 37.77 and 45.07 and 43.79, the “Cell Cycle Phase, G2” value (GB126 cells; [4]) was 7.41 and 0 and 1.63 and the “Cell Cycle Phase, S” value (GB126 cells; [4]) was 54.82 and 54.93 and 54.58. The “Mean proportion of cells in G1” value (GB126 cells; QST, 24 hours) was 42%, the “Mean proportion of cells in G2” value (GB126 cells; QST, 24 hours) was 3% and the “Mean proportion of cells in S” value (GB126 cells; QST, 24 hours) was 55%. For the same molecule, the “Cell Cycle Phase (% of cells), G1” value (BT145 cells; [4]) was 33.6% and 37% and 36.8%, the “Cell Cycle Phase (% of cells), G2” value (BT145 cells; [4]) was 48.8% and 41.5% and 48% and the “Cell Cycle Phase (% of cells), S” value (BT145 cells; [4]) was 16.4% and 20.3% and 13.8%. For the same molecule, the “Mean proportion of cells in G1” value (BT145 cells; QST, 24 hours) was 36%, the “Mean proportion of cells in G2” value (BT145 cells; QST, 24 hours) was 46% and the “Mean proportion of cells in S” value (BT145 cells; QST, 24 hours) was 17%. For the same molecule, the “Cell viability (fraction of DMSO control)” value ([1]; QST 10 nM (log[nM] 1)) was 0.6995 and 0.7125, the “Cell viability (fraction of DMSO control)” value ([1]; QST 25 nM (log[nM] 1.39794)) was 0.5597 and 0.5623 and the “Cell viability (fraction of DMSO control)” value ([1]; QST 50 nM (log[nM] 1.69897)) was 0.4582 and 0.5002. For the same molecule, the “Cell viability (fraction of DMSO control)” value ([1]; QST 100 nM (log[nM] 2)) was 0.3562 and 0.4332, the “sensitivity of primary human astrocytes to QST compared with GSCs” value ([1]; in vitro dose response assay) was “equally sensitive” and the viability at 3 days, 10 nM ([2]; QST 10 nM (log[nM] 1)) was 60.9%. The viability at 3 days, 25 nM ([2]; QST 25 nM (log[nM] 1.39794)) was 46.7%, the viability at 3 days, 50 nM ([2]; QST 50 nM (log[nM] 1.69897)) was 36.5% and the viability at 3 days, 100 nM ([2]; QST 100 nM (log[nM] 2)) was 27.2%. The IC50 [3] was 0.05 to 0.1 µM.
